A short description of this data set: photoluminescence quantum yield (fraction); solvent given as SMILES.

Our source for the photoluminescence quantum yield values is the Deep4Chem optical property database.

Compound `c1ccc(-p2c3ccccc3c3sc4ccccc4c32)cc1` (configuration not stated) gave a photoluminescence quantum yield (in ClCCl) of 0.24.

In turn, `COc1ccc(C2=C/C(=C\c3ccc(C#N)cc3)C(=O)N2)cc1OC` gave a photoluminescence quantum yield (in C1COCCO1) of 0.188.

Regarding `c1ccc(-c2cc(-c3ccc4ccc5c(-c6ccnc(-c7ccccn7)c6)ccc6ccc3c4c65)ccn2)nc1`, the photoluminescence quantum yield reads like this: (in C1CCOC1) 0.65; (in CC#N) 0.56; (in CCC#N) 0.56; (in CCCC#N) 0.58; (in CCCCCC) 0.6; (in CCCO) 0.38. Moreover, the photoluminescence quantum yield is 0.39 (in CCO), 0.27 (in CO) and 0.56 (in Cc1ccccc1).

For `CCCCc1ccc(-n2c3c(c4c2c2c(n4-c4ccc(CCCC)cc4)-c4ccc(C(F)(F)F)cc4NB2c2ccccc2)B(c2ccccc2)Nc2cc(C(F)(F)F)ccc2-3)cc1`, the photoluminescence quantum yield (in Cc1ccccc1) came to 0.78.

For the compound `c1ccc(/C(=C(\c2ccccc2)c2cc(-c3ccccc3)ccc2-c2ccccc2)c2cc(-c3ccccc3)ccc2-c2ccccc2)cc1`, the photoluminescence quantum yield (in C1CCOC1) worked out at 0.3.

As to `Fc1ccc(-c2cc3c4c(c2)CCc2cc(-c5ccc(F)cc5)cc(c2-4)CC3)cc1`, the photoluminescence quantum yield reads like this: (in C1CCCCC1) 0.48; (in C1CCOC1) 0.81; (in CC#N) 0.19; (in CCCCCC) 0.55; (in CCO) 0.18; (in CN(C)C=O) 0.56. Further, the photoluminescence quantum yield was 0.24 (in CO), 1 (in Cc1ccccc1), 0.55 (in ClC(Cl)Cl) and 1 (in ClCCl).

Under “in CC#N”, `CN1/C(=C\C=C\C2=C3C=CC(c4ccccc4)=[N+]3[B-](F)(F)n3c2ccc3-c2ccccc2)Sc2ccccc21` yielded a photoluminescence quantum yield of 0.1.

In turn, `N#C/C(=C(/C#N)c1ccc(-c2ccncc2)cc1)c1ccc(-c2ccncc2)cc1` gave a photoluminescence quantum yield (in ClCCl) of 0.002.

Regarding `CCOC(=O)C1=C(C(=O)OCC)C2(c3ccccc3-c3ccccc32)[C@@H](c2ccc(Cl)cc2)C=C2c3cc(OC)c(OC)cc3CCN21`, under “in ClCCl”, the photoluminescence quantum yield amounted to 0.00114.

For the setting “in O=P(c1ccccc1)(c1ccccc1)c1ccccc1Oc1ccccc1P(=O)(c1ccccc1)c1ccccc1”, `CC1(C)c2ccccc2N(c2ccccc2)c2ccc(-c3ccc(C(=O)c4ccc(-c5ccc6c(c5)C(C)(C)c5ccccc5N6c5ccccc5)cc4)cc3)cc21` came in with a photoluminescence quantum yield of 0.53.

Consider `CCCCN(CCCC)c1ccc2c#cc3cc4c#cc5ccc(C(F)(F)F)cc5c#cc#cc5cc(C(F)(F)F)ccc5c#cc4cc3c#cc3ccc(N(CCCC)CCCC)cc3c#cc#cc2c1`, for which the photoluminescence quantum yield (in ClCCl) stood at 0.35.

For the compound `O=Cc1ccc2c(c1)c1ccccc1n2-c1cc2ccccc2c2ccccc12`, the photoluminescence quantum yield runs as follows: (in CC#N) 0.015; (in CCCCC) 0.025; (in Cc1ccccc1) 0.022; (in ClCCl) 0.03.

Take `O=C1c2cc3ccccc3cc2C2=Nc3ccc4ccccc4[n+]3[B-](F)(F)N12`: where the note is “in ClCCl”, the photoluminescence quantum yield is 0.93.

As for `Cc1ccc(C2=C3C=C(I)C=[N+]3[B-](F)(F)n3cc(I)cc32)cc1`, the photoluminescence quantum yield by setting is: (in C1CCCCC1) 0.012; (in CC#N) 0.005; (in CCO) 0.006; (in CCOC(C)=O) 0.007; (in CO) 0.005; (in OCC(F)(F)F) 0.006.

For the setting “in ClCCl”, `FC(F)(F)c1ccccc1B1c2ccccc2N(c2ccccc2)c2ccccc21` came in with a photoluminescence quantum yield of 0.79.

The compound `c1csc(-c2nc3ccccc3c3cc4ccccn4c23)c1` had a photoluminescence quantum yield (in CS(C)=O) of 0.2.

Turning to `COC1=[N+]2C(=C(c3ccccc3)c3ccc(OC)n3[B-]2(F)F)C=C1`, the photoluminescence quantum yield by setting is: (in CC#N) 0.11; (in CCCCCC) 0.12; (in CCOC(C)=O) 0.11; (in CO) 0.14; (in ClCCl) 0.2.

Regarding `C[C@]12C(=O)NC(=O)N([C@H]3CC(O)[C@@H](CO)O3)[C@H]1[C@H]1Oc3cc4oc(=O)ccc4cc3[C@H]12` (some centres not stated), the photoluminescence quantum yield runs as follows: (in CC(C)O) 0.003; (in CCO) 0.005; (in CCOCC) 0.001; (in CO) 0.007; (in O) 0.044.

Regarding `O=S(=O)(c1ccc(-c2ccc(-c3nc4c5ccccc5c5ccccc5c4n3-c3ccccc3)cc2)cc1)c1ccc(-c2ccc(-c3nc4c5ccccc5c5ccccc5c4n3-c3ccccc3)cc2)cc1`, the photoluminescence quantum yield by setting is: (in C1CCOC1) 0.847; (in CC#N) 0.579; (in CC(C)=O) 0.779; (in CC(C)OC(C)C) 0.81; (in CCCCCC) 0.676; (in CCCCOCCCC) 0.85. Besides, the photoluminescence quantum yield (in CCN(CC)CC) is 0.102; the photoluminescence quantum yield (in CCOC(C)=O) came out at 0.89; the photoluminescence quantum yield (in CCOCC) came to 0.992; the photoluminescence quantum yield (in CN(C)C=O) is 0.775; the photoluminescence quantum yield (in ClC(Cl)Cl) worked out at 1; the photoluminescence quantum yield (in ClCCl) came to 0.824. Where the note is “in c1ccc2c(c1)c1ccccc1n2-c1ccc(-c2ccc(-n3c4ccccc4c4ccccc43)cc2)cc1”, this compound displayed a photoluminescence quantum yield of 0.72.

`Cc1ccc(/C2=c3\cc/c(o3)=C(\c3ccc(C)cc3)c3ccc([nH]3)-c3ccc4n3[B-](F)(F)[N+]3=C(C=CC3=C4c3cccs3)c3ccc2[nH]3)cc1` returned a photoluminescence quantum yield (in ClC(Cl)Cl) of 0.09.

Under “in CC1CCCO1”, `O=c1cc2cc(O)c3cc(O)cc4ccc(o1)c2c43` showed a photoluminescence quantum yield of 0.36.

In turn, `COc1ccccc1` came in with a photoluminescence quantum yield (in C1CCCCC1) of 0.36.

`O=P1(c2ccccc2)C(c2cccs2)=Cc2ccccc21` (configuration not stated) registered a photoluminescence quantum yield (in C1CCOC1) of 0.23.

For the compound `CCCCCCCC(=O)Oc1ccc2c3cccc4c(OC(=O)CCCCCCC)ccc(c5cccc1c52)c43`, the photoluminescence quantum yield came out at 0.97 (in C1CCOC1); 0.97 (in Cc1ccccc1); 0.06 (in ClC(Cl)(Cl)Cl); 0.91 (in ClC(Cl)Cl); 0.8 (in ClCCl); 0.93 (in c1ccncc1).

Compound `COc1ccc(-c2cnc(/C=C/c3ccccc3)o2)cc1OC` returned a photoluminescence quantum yield (in ClCCl) of 0.52.

`CC1(C)C(/C=C/C=C/c2cc3ccc(O)cc3oc2=O)=[N+](CCCS(=O)(=O)[O-])c2ccccc21` displayed a photoluminescence quantum yield (in CS(C)=O) of 0.013 and a photoluminescence quantum yield (in O) of 0.013.

For the setting “in CCOC(C)=O”, `O=Cc1cc2c(cc3ccc4cccc5ccc2c3c45)[nH]1` had a photoluminescence quantum yield of 0.61.

Take `O=P1(c2ccccc2)C(c2ccccc2)=Cc2ccccc21` (configuration not stated): the photoluminescence quantum yield reads like this: (in C1CCOC1) 0.3; (in ClCCl) 0.85.

With `C(/C=C/Nc1cccc2ccccc12)=[NH+]c1cccc2ccccc12`, for the setting “in CS(C)=O”, the photoluminescence quantum yield turned out to be 0.01.

`N#CC(C#N)=Cc1ccc(-c2ccc(-c3nc4ccccc4s3)c(O)c2)o1`: the photoluminescence quantum yield by setting is: (in CCO) 0.0089; (in ClCCl) 0.0121; (in O) 0.01.

Under “in CC#N”, `O=[N+]([O-])c1ccc(C#Cc2ccccc2C#Cc2ccc([N+](=O)[O-])cc2)cc1` came in with a photoluminescence quantum yield of 0.

`CCN(CC)c1ccc2cc(/C=C/C3=CC(/C=C/c4cc5ccc(N(CC)CC)cc5oc4=O)=[O+][B-](F)(F)O3)c(=O)oc2c1`: the photoluminescence quantum yield is, setting by setting: (in CC#N) 0.012; (in CC(C)=O) 0.032; (in CCOC(C)=O) 0.418; (in CN(C)C=O) 0.096; (in CS(C)=O) 0.008; (in Cc1ccccc1) 0.849. Further, the photoluminescence quantum yield by setting is: (in ClC(Cl)Cl) 0.504; (in ClCCl) 0.271.

On to `Cc1ccc(/C=C/c2nc(-c3ccc([N+](=O)[O-])cc3)[nH]c2/C=C/c2ccc(C)cc2)cc1`, for which, where the note is “in ClCCl”, the photoluminescence quantum yield amounted to 0.

`CC(C)(C)c1ccc(-c2c(-c3cccc(N(c4ccccc4)c4ccccc4)c3)c(C#N)c(-c3cccc(N(c4ccccc4)c4ccccc4)c3)c(-c3ccc(C(C)(C)C)cc3)c2-c2ccc(C(C)(C)C)cc2)cc1` returned a photoluminescence quantum yield (in C1CCOC1) of 0.072.

Turning to `O=c1c2cc(F)c(O)cc2oc2cc(N3CCCCC3)c(F)cc12`, the photoluminescence quantum yield (in CCO) is 0.23.

With `CN(C)c1ccc(C#Cc2ccc(C#N)cc2)cc1`, the photoluminescence quantum yield by setting is: (in C1CCCCC1) 0.455; (in C1CCOC1) 0.4; (in C1COCCO1) 0.066; (in CC1CCCO1) 0.099; (in CC#N) 0.024; (in CC(C)=O) 0.49. The same compound displayed a photoluminescence quantum yield (in CC(C)CC(C)(C)C) of 0.032; a photoluminescence quantum yield (in CC(C)O) of 0.006; a photoluminescence quantum yield (in CCCCCCCCCCCCCCCC) of 0.3; a photoluminescence quantum yield (in CCCCCCCCCCCCCCCCCl) of 0.33; a photoluminescence quantum yield (in CCOC(C)=O) of 0.33; a photoluminescence quantum yield (in CCOCC) of 0.29. Further, the photoluminescence quantum yield runs as follows: (in CN(C)C=O) 0.17; (in CS(C)=O) 0.029; (in Cc1ccccc1) 0.38.

Consider `CCCCCCCC1=C(C)C(=O)n2c1cc1[nH]c(C(=O)OC)c(C)c1c2=O`, for which the photoluminescence quantum yield worked out at 0.02 (in C1CCCCC1); 0.73 (in CO); 0.83 (in CS(C)=O); 0.52 (in ClC(Cl)Cl); 0.1 (in c1ccccc1).

`Cc1cc(C)c([B-]2(c3c(C)cc(C)cc3C)[O+]=P(c3ccccc3)(c3ccccc3)c3cc(C#Cc4ccccc4)sc3-c3sc(C#Cc4ccccc4)cc32)c(C)c1` came in with a photoluminescence quantum yield (in C1CCOC1) of 0.063.
